Results published in ChEMBL document CHEMBL5465560, “Selectivity Literature for EUbOPEN Chemogenomic Library” (2024).
Values belong to the molecule of their own block, whether it stands above or below them.

How the values were obtained:
[1] = target: Macrophage colony-stimulating factor 1 receptor (Homo sapiens) (UniProt P07333); assay: Selectivity interaction (Ambit KINOMEscan and KiNATiv profiling in Jurkat cells) EUB0000090b CSF1R; assay type: cell-based; conditions: at 1 µM
[2] = target: 5'-AMP-activated protein kinase catalytic subunit alpha-2 (Homo sapiens) (UniProt P54646); assay: Selectivity interaction (ActivX KiNativ screen (kinase selectivity in THP-1 cell lysates)) EUB0000639a PRKAA2; assay type: subcellular; conditions: lysate
5'-AMP-activated protein kinase catalytic subunit alpha-2 (Homo sapiens), sequence (P54646 whole entry, looked up): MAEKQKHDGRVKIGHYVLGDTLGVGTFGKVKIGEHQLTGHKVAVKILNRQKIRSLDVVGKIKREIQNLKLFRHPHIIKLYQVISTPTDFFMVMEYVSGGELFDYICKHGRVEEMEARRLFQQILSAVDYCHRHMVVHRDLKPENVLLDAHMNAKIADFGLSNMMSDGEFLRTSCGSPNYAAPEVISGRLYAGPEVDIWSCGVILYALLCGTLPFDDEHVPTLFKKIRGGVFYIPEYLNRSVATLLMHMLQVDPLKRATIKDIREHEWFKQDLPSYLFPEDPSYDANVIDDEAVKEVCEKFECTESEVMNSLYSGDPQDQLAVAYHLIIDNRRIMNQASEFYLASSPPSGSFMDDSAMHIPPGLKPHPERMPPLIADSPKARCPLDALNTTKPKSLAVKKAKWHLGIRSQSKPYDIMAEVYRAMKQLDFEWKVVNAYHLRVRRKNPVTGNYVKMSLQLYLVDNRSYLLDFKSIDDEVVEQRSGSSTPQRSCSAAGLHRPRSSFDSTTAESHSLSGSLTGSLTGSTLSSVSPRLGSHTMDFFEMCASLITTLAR

[3] = target: Serine/threonine-protein kinase 10 (Homo sapiens) (UniProt O94804); assay: Selectivity interaction (ActivX KiNativ screen (kinase selectivity in THP-1 cell lysates)) EUB0000639a STK10; assay type: subcellular; conditions: lysate, at 0.01 µM
Serine/threonine-protein kinase 10 (Homo sapiens), sequence (O94804 whole entry, looked up): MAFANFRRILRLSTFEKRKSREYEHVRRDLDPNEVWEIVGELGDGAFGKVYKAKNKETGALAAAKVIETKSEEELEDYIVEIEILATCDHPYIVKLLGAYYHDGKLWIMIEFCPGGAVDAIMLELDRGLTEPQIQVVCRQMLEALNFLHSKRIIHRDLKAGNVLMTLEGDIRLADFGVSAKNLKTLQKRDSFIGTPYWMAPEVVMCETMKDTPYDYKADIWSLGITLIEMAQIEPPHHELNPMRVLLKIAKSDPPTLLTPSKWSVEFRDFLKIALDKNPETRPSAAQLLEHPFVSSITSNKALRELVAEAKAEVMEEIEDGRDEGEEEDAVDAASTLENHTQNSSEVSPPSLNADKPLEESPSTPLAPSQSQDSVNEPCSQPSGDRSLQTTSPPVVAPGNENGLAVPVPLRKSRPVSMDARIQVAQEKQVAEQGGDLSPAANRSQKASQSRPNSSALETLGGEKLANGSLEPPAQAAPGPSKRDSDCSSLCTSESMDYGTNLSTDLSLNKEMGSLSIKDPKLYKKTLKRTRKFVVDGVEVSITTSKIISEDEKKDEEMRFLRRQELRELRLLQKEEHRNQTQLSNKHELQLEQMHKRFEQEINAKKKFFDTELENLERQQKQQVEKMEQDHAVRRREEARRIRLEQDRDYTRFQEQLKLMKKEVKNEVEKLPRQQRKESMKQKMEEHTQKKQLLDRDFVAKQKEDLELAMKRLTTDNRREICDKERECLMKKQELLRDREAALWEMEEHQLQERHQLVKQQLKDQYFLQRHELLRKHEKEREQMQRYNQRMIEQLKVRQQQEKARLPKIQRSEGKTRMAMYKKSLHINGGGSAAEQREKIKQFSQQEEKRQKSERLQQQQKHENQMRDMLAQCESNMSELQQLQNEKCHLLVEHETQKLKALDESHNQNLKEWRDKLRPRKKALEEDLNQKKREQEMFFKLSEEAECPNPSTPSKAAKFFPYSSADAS

[4] = target: Transcription initiation factor TFIID subunit 1-like (Homo sapiens) (UniProt Q8IZX4); assay: Selectivity interaction (Bromodomain panel (DSF asssay)) EUB0000270b TAF1L
Transcription initiation factor TFIID subunit 1-like (Homo sapiens), sequence (Q8IZX4 whole entry): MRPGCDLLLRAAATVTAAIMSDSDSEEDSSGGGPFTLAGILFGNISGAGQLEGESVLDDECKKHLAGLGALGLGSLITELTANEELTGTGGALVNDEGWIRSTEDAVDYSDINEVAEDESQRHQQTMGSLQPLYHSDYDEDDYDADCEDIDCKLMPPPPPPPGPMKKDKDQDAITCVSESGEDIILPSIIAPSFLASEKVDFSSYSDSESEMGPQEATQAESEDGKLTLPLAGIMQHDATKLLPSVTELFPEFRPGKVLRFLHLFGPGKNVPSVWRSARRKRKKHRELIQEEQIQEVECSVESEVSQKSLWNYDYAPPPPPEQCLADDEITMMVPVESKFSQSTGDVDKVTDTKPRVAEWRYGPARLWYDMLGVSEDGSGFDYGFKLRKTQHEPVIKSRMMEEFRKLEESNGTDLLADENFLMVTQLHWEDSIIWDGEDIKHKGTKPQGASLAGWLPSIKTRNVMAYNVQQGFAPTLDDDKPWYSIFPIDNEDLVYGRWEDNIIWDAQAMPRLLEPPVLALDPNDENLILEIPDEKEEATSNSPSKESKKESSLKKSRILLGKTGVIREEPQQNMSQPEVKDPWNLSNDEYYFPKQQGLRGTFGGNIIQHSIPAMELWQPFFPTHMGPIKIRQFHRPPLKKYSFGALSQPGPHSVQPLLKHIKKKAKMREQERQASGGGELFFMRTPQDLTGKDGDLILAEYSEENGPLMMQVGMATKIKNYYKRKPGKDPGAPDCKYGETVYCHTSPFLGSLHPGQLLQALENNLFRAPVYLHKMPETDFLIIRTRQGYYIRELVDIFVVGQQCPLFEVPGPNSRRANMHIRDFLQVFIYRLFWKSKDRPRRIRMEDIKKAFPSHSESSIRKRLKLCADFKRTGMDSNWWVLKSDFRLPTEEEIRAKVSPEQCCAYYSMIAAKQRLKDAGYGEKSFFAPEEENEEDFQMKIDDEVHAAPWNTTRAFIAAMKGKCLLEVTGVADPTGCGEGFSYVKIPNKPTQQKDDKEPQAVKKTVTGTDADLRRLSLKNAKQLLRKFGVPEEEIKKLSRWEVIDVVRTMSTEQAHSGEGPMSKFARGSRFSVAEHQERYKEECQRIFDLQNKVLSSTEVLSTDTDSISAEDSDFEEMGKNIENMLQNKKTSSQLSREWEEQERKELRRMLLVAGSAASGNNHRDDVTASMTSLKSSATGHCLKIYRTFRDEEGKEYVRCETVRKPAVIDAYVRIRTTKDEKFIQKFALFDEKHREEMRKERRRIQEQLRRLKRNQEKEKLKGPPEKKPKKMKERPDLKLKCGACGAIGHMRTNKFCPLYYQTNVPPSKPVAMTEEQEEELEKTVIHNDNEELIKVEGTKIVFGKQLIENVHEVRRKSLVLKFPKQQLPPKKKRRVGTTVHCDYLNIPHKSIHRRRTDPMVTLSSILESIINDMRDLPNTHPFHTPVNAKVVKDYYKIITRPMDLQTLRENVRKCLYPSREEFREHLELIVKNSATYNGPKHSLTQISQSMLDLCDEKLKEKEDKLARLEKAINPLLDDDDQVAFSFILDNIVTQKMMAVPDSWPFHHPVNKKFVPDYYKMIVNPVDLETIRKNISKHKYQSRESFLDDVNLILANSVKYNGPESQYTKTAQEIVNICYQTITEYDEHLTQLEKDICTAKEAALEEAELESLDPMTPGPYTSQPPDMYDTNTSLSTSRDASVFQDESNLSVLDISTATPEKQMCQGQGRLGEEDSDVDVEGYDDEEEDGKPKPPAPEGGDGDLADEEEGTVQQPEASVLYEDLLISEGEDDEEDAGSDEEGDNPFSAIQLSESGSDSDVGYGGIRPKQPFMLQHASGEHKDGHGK

[5] = target: Dual specificity testis-specific protein kinase 1 (Homo sapiens) (UniProt Q15569); assay: Selectivity interaction (KinomeScan (DiscoverX)) EUB0000695a TESK1; conditions: at 100 nM
Dual specificity testis-specific protein kinase 1 (Homo sapiens), sequence (Q15569 whole entry, looked up): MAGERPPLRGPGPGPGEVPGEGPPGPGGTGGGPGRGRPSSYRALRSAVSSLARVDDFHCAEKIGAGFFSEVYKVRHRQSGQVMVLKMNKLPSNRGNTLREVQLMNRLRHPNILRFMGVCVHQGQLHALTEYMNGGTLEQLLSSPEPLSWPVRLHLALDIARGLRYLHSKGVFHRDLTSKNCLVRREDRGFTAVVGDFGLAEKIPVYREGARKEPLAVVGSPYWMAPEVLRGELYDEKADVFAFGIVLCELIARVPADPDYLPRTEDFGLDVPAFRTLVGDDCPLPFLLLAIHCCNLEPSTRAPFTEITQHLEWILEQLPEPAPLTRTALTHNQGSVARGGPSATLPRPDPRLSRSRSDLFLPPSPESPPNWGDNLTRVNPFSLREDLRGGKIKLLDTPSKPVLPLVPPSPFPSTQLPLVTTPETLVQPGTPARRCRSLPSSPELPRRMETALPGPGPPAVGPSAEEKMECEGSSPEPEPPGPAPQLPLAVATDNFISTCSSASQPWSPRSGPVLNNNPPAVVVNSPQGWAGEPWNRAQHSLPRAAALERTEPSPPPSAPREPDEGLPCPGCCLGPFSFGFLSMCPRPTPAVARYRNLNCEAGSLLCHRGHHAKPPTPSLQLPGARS

[6] = target: T1, Mitogen-activated protein kinase kinase kinase 15 (Homo sapiens) (UniProt Q6ZN16); assay: Selectivity interaction (KinomeScan (DiscoverX)) EUB0000595a MAP3K15; conditions: at 10 µM
T1 sequence (whole entry): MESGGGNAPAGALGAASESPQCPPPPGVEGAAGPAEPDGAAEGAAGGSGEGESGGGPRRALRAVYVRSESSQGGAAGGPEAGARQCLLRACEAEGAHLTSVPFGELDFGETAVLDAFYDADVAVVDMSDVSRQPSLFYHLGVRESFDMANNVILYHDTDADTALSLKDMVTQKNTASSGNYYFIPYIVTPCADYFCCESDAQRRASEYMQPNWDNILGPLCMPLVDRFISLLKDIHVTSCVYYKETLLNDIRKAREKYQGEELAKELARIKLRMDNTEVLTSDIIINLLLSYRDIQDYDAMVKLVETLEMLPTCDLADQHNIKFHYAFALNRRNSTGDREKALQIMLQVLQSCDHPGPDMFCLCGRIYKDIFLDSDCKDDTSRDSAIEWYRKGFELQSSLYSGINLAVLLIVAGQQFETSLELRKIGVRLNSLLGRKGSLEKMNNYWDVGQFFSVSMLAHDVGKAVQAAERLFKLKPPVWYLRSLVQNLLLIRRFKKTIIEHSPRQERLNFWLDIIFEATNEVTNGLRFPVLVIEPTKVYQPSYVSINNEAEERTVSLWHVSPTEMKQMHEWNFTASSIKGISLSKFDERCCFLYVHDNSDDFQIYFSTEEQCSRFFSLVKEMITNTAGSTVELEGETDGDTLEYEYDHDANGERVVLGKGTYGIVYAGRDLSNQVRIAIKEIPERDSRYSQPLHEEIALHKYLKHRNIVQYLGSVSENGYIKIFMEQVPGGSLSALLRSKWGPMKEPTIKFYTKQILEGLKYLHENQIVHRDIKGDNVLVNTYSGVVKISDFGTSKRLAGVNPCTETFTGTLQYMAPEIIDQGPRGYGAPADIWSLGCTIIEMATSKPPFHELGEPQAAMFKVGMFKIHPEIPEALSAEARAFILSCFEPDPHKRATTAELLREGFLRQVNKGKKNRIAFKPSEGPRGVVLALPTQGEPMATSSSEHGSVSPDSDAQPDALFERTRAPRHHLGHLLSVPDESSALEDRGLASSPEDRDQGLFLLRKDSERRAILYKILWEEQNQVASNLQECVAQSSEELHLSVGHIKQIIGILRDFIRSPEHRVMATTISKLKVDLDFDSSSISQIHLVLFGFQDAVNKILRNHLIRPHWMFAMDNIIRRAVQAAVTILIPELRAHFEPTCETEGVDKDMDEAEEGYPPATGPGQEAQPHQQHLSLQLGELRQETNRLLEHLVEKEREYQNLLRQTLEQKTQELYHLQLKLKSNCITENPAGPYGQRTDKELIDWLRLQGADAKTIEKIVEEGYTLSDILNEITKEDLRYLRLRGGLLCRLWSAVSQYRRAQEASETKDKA

[7] = target: Atypical kinase COQ8A, mitochondrial (Homo sapiens, UniProt Q8NI60); assay: Selectivity interaction (KinomeScan (DiscoverX)) EUB0001079a ADCK3; conditions: at 1 µM
[8] = target: Vascular endothelial growth factor receptor 1 (Homo sapiens) (UniProt P17948); assay: Selectivity interaction (KinomeScan (DiscoverX)) EUB0001079a FLT1; conditions: at 1 µM
[9] = target: NT-3 growth factor receptor (Homo sapiens, UniProt Q16288); assay: Selectivity interaction (KinomeScan (DiscoverX)) EUB0000092b NTRK3; conditions: at 10 µM
[10] = target: T2, Interleukin-1 receptor-associated kinase 4 (Homo sapiens) (UniProt Q9NWZ3); assay: Selectivity interaction (KinomeScan (DiscoverX)) EUB0000655a IRAK4; conditions: at 10 µM
T2 sequence (whole entry): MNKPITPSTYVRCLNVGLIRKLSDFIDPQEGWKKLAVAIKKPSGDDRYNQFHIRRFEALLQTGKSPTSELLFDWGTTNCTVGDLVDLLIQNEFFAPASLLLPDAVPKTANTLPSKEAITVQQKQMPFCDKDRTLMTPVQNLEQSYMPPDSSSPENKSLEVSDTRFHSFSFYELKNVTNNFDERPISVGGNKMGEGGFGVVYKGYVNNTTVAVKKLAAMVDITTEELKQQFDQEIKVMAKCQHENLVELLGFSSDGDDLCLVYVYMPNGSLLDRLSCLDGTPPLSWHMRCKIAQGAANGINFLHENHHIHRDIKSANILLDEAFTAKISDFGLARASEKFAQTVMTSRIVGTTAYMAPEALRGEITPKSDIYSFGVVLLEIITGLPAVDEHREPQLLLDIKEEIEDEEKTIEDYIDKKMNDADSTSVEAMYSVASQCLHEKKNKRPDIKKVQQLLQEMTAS

[11] = target: 5'-AMP-activated protein kinase catalytic subunit alpha-2 (Homo sapiens) (UniProt P54646); assay: Selectivity interaction (ActivX KiNativ screen (ex vivo kinase selectivity in human PBMCs)) EUB0001619a PRKAA2; assay type: cell-based; conditions: PBMC, at 1 µM
[12] = target: Cyclin-dependent kinase 8 (Homo sapiens, UniProt P49336); assay: Selectivity interaction (KinomeScan (DiscoverX)) EUB0000607a CDK8; conditions: at 10 µM
[13] = target: Serine/threonine-protein kinase 38-like (Homo sapiens) (UniProt Q9Y2H1); assay: Selectivity interaction (KinomeScan (DiscoverX)) EUB0000666a STK38L; conditions: at 10 µM

Macrophage colony-stimulating factor 1 receptor (Homo sapiens), sequence (P07333 whole entry): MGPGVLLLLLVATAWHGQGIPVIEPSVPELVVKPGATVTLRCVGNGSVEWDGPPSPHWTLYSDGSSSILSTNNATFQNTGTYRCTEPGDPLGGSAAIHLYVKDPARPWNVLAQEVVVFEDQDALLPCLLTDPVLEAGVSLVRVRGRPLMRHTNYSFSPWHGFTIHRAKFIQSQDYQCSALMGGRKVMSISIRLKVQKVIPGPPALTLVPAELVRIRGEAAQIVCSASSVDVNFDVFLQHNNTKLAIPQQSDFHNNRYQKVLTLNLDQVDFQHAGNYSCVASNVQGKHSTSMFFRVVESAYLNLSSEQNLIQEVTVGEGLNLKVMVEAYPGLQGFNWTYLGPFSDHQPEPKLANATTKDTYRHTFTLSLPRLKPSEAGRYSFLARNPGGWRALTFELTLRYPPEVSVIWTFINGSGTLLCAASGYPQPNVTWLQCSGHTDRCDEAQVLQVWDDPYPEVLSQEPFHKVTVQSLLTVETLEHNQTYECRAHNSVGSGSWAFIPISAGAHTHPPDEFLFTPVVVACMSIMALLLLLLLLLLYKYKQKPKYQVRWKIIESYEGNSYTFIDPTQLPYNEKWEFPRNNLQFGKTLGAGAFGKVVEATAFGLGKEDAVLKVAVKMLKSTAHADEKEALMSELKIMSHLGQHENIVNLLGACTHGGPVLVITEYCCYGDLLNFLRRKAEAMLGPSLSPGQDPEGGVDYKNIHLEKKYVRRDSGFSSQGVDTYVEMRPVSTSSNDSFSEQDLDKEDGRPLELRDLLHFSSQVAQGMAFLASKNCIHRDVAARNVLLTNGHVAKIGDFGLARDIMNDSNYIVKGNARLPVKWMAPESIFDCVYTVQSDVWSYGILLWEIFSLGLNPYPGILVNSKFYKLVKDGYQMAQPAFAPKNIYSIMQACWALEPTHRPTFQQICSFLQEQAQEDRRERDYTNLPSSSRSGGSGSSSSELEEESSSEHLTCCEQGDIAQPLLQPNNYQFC

SMILES: CN(C)C/C=C/C(=O)Nc1ccc(C(=O)N2CCCC(Nc3ncc(Cl)c(-c4c[nH]c5ccccc45)n3)C2)cc1 (configuration not stated)
- % of control [1]: 90%

- % of inhibition ([2]; at 0.01 µM): 16%
- % of inhibition ([2]; at 0.04 µM): 21.7%
- % of inhibition ([2]; at 0.2 µM): 11.2%
- % of inhibition ([2]; at 1 µM): 11.8%
- % of inhibition ([2]; at 5 µM): 28.8%
- % of inhibition [3]: 2.4%
SMILES: CC[C@@H]1[C@H](F)C(=O)N[C@@H]1COc1nccc2cc(C(N)=O)c(OC)cc12 [ZIMLOVISERTIB]

- dTM [4]: -1.79 K
SMILES: Cc1cc(CN)cc(C)c1-c1ncn(C)c1-c1cncn1C

SMILES: Cc1cc(F)c(C(=O)Nc2cccc(-c3nncn3C(C)C)n2)cc1-n1cnc(C2CC2)c1
- % of control [5]: 85%

SMILES: COCC(=O)NC/C=C/c1ccc2ncnc(Nc3ccc(Oc4ccc(C)nc4)c(C)c3)c2c1 [CP-724714]
- % of control [6]: 100%

SMILES: Nc1cnc(N2CCc3cc(S(=O)(=O)Nc4c(F)cc(Cl)cc4F)cc(N4CCCC4=O)c32)nc1 [TP-020n]
- % of control [7]: 100%
- % of control [8]: 93%

SMILES: CCC(=O)N1CCN(c2ccc(-n3c(=O)ccc4cnc5ccc(-c6cnc7ccccc7c6)cc5c43)cc2C(F)(F)F)CC1
- % of control [9]: 100%

SMILES: CN(C)CCOc1ccc(-c2nc(-c3ccncc3)c(-c3ccc4c(c3)CC/C4=N\O)[nH]2)cc1
- % of control [10]: 91%

SMILES: N#Cc1cccc(-c2c[nH]c3ncnc(N4CCOCC4)c23)c1
- % of inhibition [11]: 33%

SMILES: CNC(=O)Nc1ccc(-c2nc(N3CC4CCC(C3)O4)c3cnn(C4CCC5(CC4)OCCO5)c3n2)cc1
- % of control [12]: 100%

SMILES: O=C(NOC[C@H](O)CO)c1ccc(F)c(F)c1Nc1ccc(I)cc1F
- % of control [13]: 100%
